Laboratory results taken from patent publication US20260053811A1, “METHODS OF TREATING HYPERTENSION IN OBESE SUBJECTS” (Mineralys Therapeutics, Inc., priority 2022, published 2026).

How the values were obtained:
Format in all cases: in vivo, human
11-deoxycorticosterone = assay: Serum 11-deoxycorticosterone (pharmacodynamic response); settings: for 11-Deoxycorticosterone, Mean (SD) Observed / 11-Deoxycorticosterone, Mean (SD) Percent Change from Baseline: Part 1; for 11-Deoxycorticosterone, Mean Observed / 11-Deoxycorticosterone, Mean Percent Change from Baseline: Part 2
From the text: PK/PD Analysis Set includes all subjects in the SAF who have sufficient data available for the analysis of pharmacokinetic and pharmacodynamic measurements. In the analyses based on PKPD, subjects will be analyzed according to the actual treatment received.

hypertensive subjects [1] = assay: Serum sodium; settings: active treatment cohorts; Parts 1 and 2
hypertensive subjects [2] = assay: Vital signs, physical examination, ECG parameters; settings: Parts 1 and 2
From the text: Safety endpoints of this study are: • (a) Incidence and severity of all spontaneously reported adverse events (AEs) • (b) Changes in vital signs (standing SBP, standing DBP, body temperature, heart rate, and respiratory rate) • (c) Changes in electrocardiogram parameters (including cardiac intervals: PR, QRS, QT, and corrected QT interval using Fridericia's formula) • (d) Changes in clinical laboratory assessments (hematology, chemistry, coagulation, and urinalysis) • (e) Change in office-measured SBP from Study Week 8 (end-of-treatment period to end of follow up (i.e. end of Study Week 12 for Part 1 and end of Study 10 for Part 2).

CC(=O)N[C@H]1CC[C@H](NC(=O)CN2CCN(c3nncc(-c4ccc(C)cc4)n3)CC2)CC1 [Compound A HBr]
11-Deoxycorticosterone, Mean (SD) Observed (11-deoxycorticosterone; Wk 4, 12.5 mg BID): 9.0 (3.0) ng/dL | 11-Deoxycorticosterone, Mean (SD) Percent Change from Baseline (11-deoxycorticosterone; Wk 4, 12.5 mg BID): 12.50 (37.50) % | 11-Deoxycorticosterone, Mean (SD) Observed (11-deoxycorticosterone; Wk 4, 12.5 mg QD): 11.1 (5.5) ng/dL | 11-Deoxycorticosterone, Mean (SD) Percent Change from Baseline (11-deoxycorticosterone; Wk 4, 12.5 mg QD): 31.41 (60.95) % | 11-Deoxycorticosterone, Mean (SD) Observed (11-deoxycorticosterone; Wk 4, 25 mg BID): 13.7 (13.9) ng/dL | 11-Deoxycorticosterone, Mean (SD) Percent Change from Baseline (11-deoxycorticosterone; Wk 4, 25 mg BID): 71.63 (173.69) % | 11-Deoxycorticosterone, Mean (SD) Observed (11-deoxycorticosterone; Wk 4, 50 mg QD): 8.0 (0.0) ng/dL | 11-Deoxycorticosterone, Mean (SD) Percent Change from Baseline (11-deoxycorticosterone; Wk 4, 50 mg QD): −2.66 (9.61) % | 11-Deoxycorticosterone, Mean (SD) Observed (11-deoxycorticosterone; Wk 4, 100 mg QD): 9.5 (5.2) ng/dL | 11-Deoxycorticosterone, Mean (SD) Percent Change from Baseline (11-deoxycorticosterone; Wk 4, 100 mg QD): 16.18 (66.37) % | 11-Deoxycorticosterone, Mean (SD) Observed (11-deoxycorticosterone; Wk 12, 12.5 mg BID): 8.0 (0.0) ng/dL | 11-Deoxycorticosterone, Mean (SD) Percent Change from Baseline (11-deoxycorticosterone; Wk 12, 12.5 mg BID): 0.00 (0.00) % | 11-Deoxycorticosterone, Mean (SD) Observed (11-deoxycorticosterone; Wk 12, 12.5 mg QD): 9.2 (4.9) ng/dL | 11-Deoxycorticosterone, Mean (SD) Percent Change from Baseline (11-deoxycorticosterone; Wk 12, 12.5 mg QD): 11.96 (62.37) % | 11-Deoxycorticosterone, Mean (SD) Observed (11-deoxycorticosterone; Wk 12, 25 mg BID): 8.0 (0.0) ng/dL | 11-Deoxycorticosterone, Mean (SD) Percent Change from Baseline (11-deoxycorticosterone; Wk 12, 25 mg BID): 0.00 (0.00) % | 11-Deoxycorticosterone, Mean (SD) Observed (11-deoxycorticosterone; Wk 12, 50 mg QD): 8.5 (2.4) ng/dL | 11-Deoxycorticosterone, Mean (SD) Percent Change from Baseline (11-deoxycorticosterone; Wk 12, 50 mg QD): 3.01 (31.53) % | 11-Deoxycorticosterone, Mean (SD) Observed (11-deoxycorticosterone; Wk 12, 100 mg QD): 8.4 (2.0) ng/dL | 11-Deoxycorticosterone, Mean (SD) Percent Change from Baseline (11-deoxycorticosterone; Wk 12, 100 mg QD): 2.80 (28.58) % | 11-deoxycorticosterone compared with placebo (11-deoxycorticosterone; Part 1 active treatment arms, Week 4): Transient increases | 11-Deoxycorticosterone, Mean Observed (11-deoxycorticosterone; Wk 4, 100 mg QD): 10.28 ng/dL | 11-Deoxycorticosterone, Mean Percent Change from Baseline (11-deoxycorticosterone; Wk 4, 100 mg QD): 6.02% | 11-Deoxycorticosterone, Mean Observed (11-deoxycorticosterone; Wk 10, 100 mg QD): 8.00 ng/dL | 11-Deoxycorticosterone, Mean Percent Change from Baseline (11-deoxycorticosterone; Wk 10, 100 mg QD): −8.78% | 11-deoxycorticosterone levels (11-deoxycorticosterone; summary of trial): unaffected | Serum sodium levels (hypertensive subjects [1]): decreased | Vital signs, physical examination, ECG parameters (hypertensive subjects [2]): no notable findings
